Assay results taken from patent publication US10073097B2, “Diagnostic assays and methods of treating pneumonia, sepsis and systemic inflammatory response syndrome” (priority 2012, dated 2018).
“Also recorded” adds a separate entry of the source. Residues, ends and D or L forms follow the SMILES beside them. *: point of attachment. Cbz = O=C(OCc1ccccc1)*; CH2F = FC*

Key:
peritoneal cells = assay: NDMP generation by peritoneal cells collected 24 H after TGA treatment, cultured with agonists or inhibitors; assay type: cell-based, mice; details: peritoneal cells 24 H after 3% TGA; for NDMP numbers compared to cells cultured without agent: 8-Br-cAMP 100 μM, H89 20 μM, 6-Bnz-cAMP 100 μM, 8-CPT-2Me-cAMP 100 μM, Y27632 30 μM, PGE2 1 μM, 24 H; for decrease in NDMP generation when compared to cells cultured without inhibitor: ML7 250 μM, Z-VAD-FMK 200 μM, Z-IETD-FMK 30 μM, flow cytometry
Protocol: Experimental Protocol. A biochemical pathway for NDMP formation was investigated. Specifically, proteins associated with F-actin were investigated, as F-actin rearrangement is a terminal step in apoptosis. The role of myosin light chain kinase (hereinafter “MLC K”) in NDMP generation was initially investigated. Peritoneal cells were isolated from peritoneal lavage 24 H after 1 mL 3% TGA injection. Peritoneal cells were cultured with one of the following agonists or inhibitors overnight in a CO2 incubator: 250 μM ML7, a MLCK inhibitor, (Tocris, Bristol, UK), 200 μM Z-VAD-FMK, a caspase 3 inhibitor, (Tocris), 30 μM Z-IETD-FMK, a caspase 8 inhibitor, (Tocris), or 30 μM Z-LEHD-FMK, or a caspase 9 inhibitor, (Tocris). Cells and MPs were collected 24 H following incubation and analyzed using flow cytometry as previously described.
Statistical comparisons were performed using Student t Test (two groups), or one-way ANOVA with Holm-Sidak post-hoc test (more than two groups) using StatView 3.5 (SAS Institute, Cary, N.C.). The mean and standard error of the mean were calculated in experiments containing multiple data points. A value of p≤0.05 was considered statistically significant.
Experimental Protocol. Elucidation of potential signaling pathways involved in NDMP formation was studied. Peritoneal cells were isolated from peritoneal lavage 24 H after 1 mL 3% TGA injection. […] Cells and MPs were collected 24 H following incubation and analyzed using flow cytometry as previously described.

Mouse neutrophils = assay: NDMP generation by mouse bone marrow neutrophils treated with TNF-α with or without inhibitors; assay type: cell-based; details: for NDMPs after TNF-α plus caspase 8 inhibitor vs TNF-α alone: WT neutrophils, 25 ng/mL rhTNF-α (TNFr1) or rmTNF-α (TNFr1 and TNFr2)
Source text: Materials and Methods. Male C57BL/6 and TNFr1 KO (stock number: 003242) mice between 6 and 8 weeks of age were obtained from Jackson Labs (Bar Harbor, Me.). Mouse and human TNF-α Recombinant Protein (rmTNF-α and rhTNF-α, respectively) were purchased from Preprotech (Rocky Hill, N.J.). NF-κB inhibitor (BAY 11-7085) and Caspase 8 inhibitor (Z-IETD-FMK) were purchased from R&D systems (Minneapolis, Minn.). The pharmacological agents were solubilized in DMSO (American Bioanalytical, Natick, Mass.). The amount of DMSO was consistent in all samples groups. Neutrophil isolation. Mouse neutrophils from bone marrow were isolated from C57B1/6 mice as previously described. The femurs and tibias were flushed with Hanks' Balanced Salt Solution without calcium & Magnesium (HBSS) (Mediatech, Inc. Manassas, Va., USA). Bone marrow particulate was disaggregated and filtered in a 70 micron filter, then centrifuged at 400×g for 10 min at 23° C. The cells in the pellet were resuspended in HBSS, placed on a 55% Percoll gradient, and centrigued at 100×g for 30 min at 23° C. The pellet was washed once more. The final neutrophil preparation was re-suspended in HBSS. The purity and viability of the neutrophils (90% purity >99% viability, respectively) was determined by flow cytometry. Neutrophil purity was assessed by flow cytometry after cell staining with fluorescently conjugated antibodies to Ly-6G, CD19, CD3 and F4/80 with >99% of the cells negative for F4/80 and CD3. The main cell contaminant in this preparation was due to B cells. Further purification was not conducted by centriguation due to risk of non-specific neutrophil activation or by magnetic beads due to microparticle-sized contaminants introduced by the beads themselves.
Microparticle Generation and Analysis. Isolated neutrophils from bone marrow preparation were plated and cultured for the indicated time at 37° C. with stated treatments. The cell/micropartocle mixture was labeled for Ly-6G and Annexin V without manipulation as previously described. […] Neutrophil derived microparticle numbers were assessed using the neutrophil specific marker, Ly-6G (Clone: 1A8, BD Pharmingen, San Diego, Calif., United States); and Annexin V (BD Pharmingen). […]
Statistical Analysis. […] The mean and standard error of the mean were calculated in experiments containing multiple data points. […]
Using flow cytometry, forward- and side-channels were set to analyze particles using 0.5-, 0.9-, and 3.0-μm latex beads for calibration as previously described (FIG. 22A). […] To enumerate NDMPs, neutrophil and NDMP mixture were analyzed with the neutrophil-specific marker, Ly6G, and the apoptosis marker, annexin V. Vesicles within the 0.3-1.0 μm range that expressed both Ly6G and phosphatidylserine were identified as NDMPs. […]

[1] = system: peritoneal cells isolated from septic mice; assay: In vitro NDMP generation by peritoneal cells isolated from septic (CLP) mice; assay type: cell-based
Protocol: Experimental Protocol. Peritoneal lavage cells from mice made septic by cecal ligation and puncture were isolated. The cells were then incubated with or without lipopolysaccharide (hereinafter “LPS”, 100 ng/mL) for […]. MPs from these cultures were then isolated, quantified by bicinchoninic acid assay (hereinafter, “BCA”), and analyzed by fluorescence-activated cell sorting (hereinafter “FACS”).
Experimental Protocol. Peritoneal cells were isolated from septic mice 24 H after CLP. The isolated peritoneal cells were incubated with PBS or 100 ng/mL LPS for 24 H. Samples were analyzed using LSR II flow cytometer and FACS Diva software (BD Biosciences). As shown in FIG. 17(A), latex beads of a predetermined size were used to set the forward and side scatter voltages to best distinguish particles ranging from […].
Experimental Protocol. Signaling intermediates required for NDMP formation are largely unexplored. cAMP was targeted as a potential signaling mechanism involved in NDMP formation. Peritoneal cells were isolated 24 H after CLP surgeries. […] After 24 H, NDMPs were enumerated and characterized by flow cytometry.

C57BL/6 mice = assay: Intraperitoneal treatment of mice with TGA, LPS or PepG: peritoneal neutrophil recruitment and NDMP generation; assay type: in vivo; details: for neutrophil recruitment and NDMP generation/accumulation in the peritoneum: i.p. injection, peritoneal lavage 24 H after 3% TGA; for # NDMPs: peritoneal NDMPs after treatment; for # NDMPs / # Neuts: 3% TGA 1 mL i.p., PepG 1 mg i.p., LPS 100 μg i.p., CLP 75% ligation/23 gauge puncture; for # Neuts: peritoneal neutrophils after treatment
Protocol: Low-endotoxin NDMPs were generated and used to assess host response during sepsis. More specifically, mice were treated with intraperitoneal injections of 3% thioglycolate (hereinafter, “TGA”), LPS, or petidylglycan (hereinafter “PepG”). Peritoneal neutrophil recruitment, NDMPs, and endotoxin associated with NDMPs were quantified.
Experimental Protocol. The ability of TGA to generate microparticles in vivo was investigated. Male C57BL/6 mice between 6 and 8 weeks of age (about 20 to 28 g) were injected in the peritoneum with 1 mL 3% thioglycolate (Sigma, St. Louis, Mo.) or with vehicle. Peritoneal lavage was performed 24 H after injection. Peritoneal cells were pelleted after a 10-minute 450×g centrifugation. The supernatant was then centrifuged for 10 minutes at 9,900×g to remove platelets. The platelet-free supernatant was centrifuged for 20 minutes at 16,000×g in order to pellet MPs. The MP pellet was resuspended in 500 μL sterile PBS and centrifuged for 20 minutes at 16,000×g. The MP pellet was then resuspended in 100 μL sterile PBS for analysis.
Analysis of cell surface antigen expression was performed on peritoneal lavage fluid. Flow cytometry data acquisition and analysis were performed on an LSR II using FACS Diva software (BD Biosciences). Antibodies used included: Ly-6G (Clone: 1A8, BioLegend), LY-6C (Clone: AL-21, BD Biosciences), CD11b (Clone: M1/70, BioLegend), Ter-119 (Clone: Ter-119, BioLegend), CD41 (Clone: MWReg30, BioLegend), CD105 (Clone: MJ7/18, BioLegend), Annexin V (BioLegend), and counting beads (Invitrogen, Grand Island, N.Y.). As shown in FIG. 19(A), forward and side scatter flow cytometry were initially performed on the lavage to both characterize and enumerate microparticles. A gate was created using 0.3-1.1 μm beads to isolate the MPs in the sample.
Vehicle mice and TGA-treated mice were stained with neutrophil specific Ly6G and annexinV antibodies. Total NDMPs from TGA-treated mice and vehicle mice were then enumerated.

## O=C(Nc1ncnc2c1ncn2[C@@H]1O[C@@H]2COP(=O)(O)OC2C1O)c1ccccc1 (stereo in doubt) [6-Bnz-cAMP]
Peritoneal cells
  NDMP numbers compared to cells cultured without agent: inhibited NDMP formation

## CC(C)(C)c1ccc(S(=O)(=O)/C=C/C#N)cc1 [BAY 11-7085]
Mouse neutrophils; WT or TNFr1−/− neutrophils, 25 ng/mL rmTNF-α or rhTNF-α, 20 μM BAY 11-7085, 1 h
  NDMP generation after activation of TNFr1, TNFr2 or both: completely abrogates NDMP generation

## CO[C@@H]1[C@@H]2OP(=O)(O)OC[C@H]2O[C@H]1n1c(Sc2ccc(Cl)cc2)nc2c(N)ncnc21 [EPAC, 8-CPT-2Me-cAMP]
Peritoneal cells
  NDMP numbers compared to cells cultured without agent: did not affect NDMP numbers

## Cl.Cl.O=S(=O)(NCCNC/C=C/c1ccc(Br)cc1)c1cccc2cnccc12 [H89]
Peritoneal cells
  NDMP numbers compared to cells cultured without agent: did not

## Cl.O=S(=O)(c1cccc2c(I)cccc12)N1CCCNCC1 [ML7]
Peritoneal cells; 24 H culture
  decrease in NDMP generation when compared to cells cultured without inhibitor: 75%

## CCCCC[C@H](O)/C=C/[C@H]1[C@H](O)CC(=O)[C@@H]1C/C=C\CCCC(=O)O [PGE2, Prostaglandin E2]
Peritoneal cells
  NDMP numbers compared to cells cultured without agent: decrease in the total number of NDMPs

## C[C@@H](N)[C@H]1CC[C@H](C(=O)Nc2ccncc2)CC1 [Y27632]
Peritoneal cells
  NDMP numbers compared to cells cultured without agent: decrease in the total number of NDMPs

## CC[C@H](C)[C@H](NC(=O)OCc1ccccc1)C(=O)N[C@@H](CCC(=O)OC)C(=O)N[C@H](C(=O)N[C@@H](CC(=O)OC)C(=O)CF)[C@@H](C)O [Z-IETD-FMK] (Cbz-IE(OMe)TD(OMe)-CH2F)
Peritoneal cells; 24 H culture
  decrease in NDMP generation when compared to cells cultured without inhibitor: 37%
Mouse neutrophils; 30 μM Z-IETD-FMK, 1 h, listed as Caspase 8 inhibitor
  NDMPs after TNF-α plus caspase 8 inhibitor vs TNF-α alone: sharply decreased but not entirely eliminated
Mouse neutrophils; 30 μM Z-IETD-FMK, 1 h, listed as caspase 8 inhibitor
  NDMPs after TNF-α plus caspase 8 inhibitor vs TNF-α alone: significant decrease in NDMPs
Mouse neutrophils; neutrophils from TNFr1−/− mice, 25 ng/mL rmTNF-α, 30 μM Z-IETD-FMK, 1 h, listed as Caspase 8 inhibitor
  microparticle generation after TNF-α plus caspase 8 inhibitor, only TNFr2 activated: did not alter NDMP numbers; also recorded: no decrease in microparticle generation

## COC(=O)CC[C@H](NC(=O)[C@H](CC(C)C)NC(=O)OCc1ccccc1)C(=O)N[C@@H](Cc1cnc[nH]1)C(=O)N[C@@H](CC(=O)OC)C(=O)CF [Z-LEHD-FMK] (Cbz-LE(OMe)HD(OMe)-CH2F)
Peritoneal cells; Z-LEHD-FMK 30 μM, 24 H culture
  NDMP generation compared to cells cultured without inhibitor: no significant difference

## COC(=O)C[C@H](NC(=O)[C@H](C)NC(=O)[C@@H](NC(=O)OCc1ccccc1)C(C)C)C(=O)CF [Z-VAD-FMK] (Cbz-Val-Ala-Asp(OMe)-CH2F)
Peritoneal cells; 24 H culture
  decrease in NDMP generation when compared to cells cultured without inhibitor: 37%

## lipopolysaccharide [LPS]
[1]; LPS 100 ng/mL vs PBS, 24 H, cells isolated 24 H after CLP
  NDMP formation from peritoneal cells: enhance NDMP formation
[1]; LPS 100 ng/mL, 18 H, peritoneal lavage cells of CLP mice
  increase in NDMPs from LPS-treated cells compared to spontaneous NDMP generation: ~60%
C57BL/6 mice
  neutrophil recruitment and NDMP generation/accumulation in the peritoneum: resulted in neutrophil recruitment and NDMP generation
  # NDMPs: 2.4 ×10^3
  # Neuts: 0.16 ×10^6

## peptidoglycan [PepG]
C57BL/6 mice
  neutrophil recruitment and NDMP generation/accumulation in the peritoneum: resulted in neutrophil recruitment and NDMP generation
  # NDMPs: 3.0 ×10^3
  # Neuts: 2.0 ×10^6

## thioglycolate [3% TGA]
C57BL/6 mice
  neutrophil recruitment and NDMP generation/accumulation in the peritoneum: greatest number of low endotoxin NDMPs
  # NDMPs: 35.1 ×10^3
  # Neuts: 6.9 ×10^6
C57BL/6 mice; listed as TGA
  neutrophil recruitment and NDMP generation/accumulation in the peritoneum: resulted in neutrophil recruitment and NDMP generation; also recorded: robust accumulation of NDMPs
